Measurements: US20260146035A1, “FUSED BICYCLIC COMPOUNDS AND THEIR USE AS MER AND AXL INHIBITORS” (DONG-A ST CO., LTD., priority 2022, published 2026)

Legend:
human AXL (473-end) = molecular target: T1, human AXL (473-end) (Homo sapiens, UniProt P30530); test: HTRF kinase activity biochemical assay, AXL; conditions: 10 μM ATP, 30 minutes pre-incubation
T1 construct: human AXL (473-end); purchased SignalChem, Canada
T1 sequence (P30530 473-894 limits assumed): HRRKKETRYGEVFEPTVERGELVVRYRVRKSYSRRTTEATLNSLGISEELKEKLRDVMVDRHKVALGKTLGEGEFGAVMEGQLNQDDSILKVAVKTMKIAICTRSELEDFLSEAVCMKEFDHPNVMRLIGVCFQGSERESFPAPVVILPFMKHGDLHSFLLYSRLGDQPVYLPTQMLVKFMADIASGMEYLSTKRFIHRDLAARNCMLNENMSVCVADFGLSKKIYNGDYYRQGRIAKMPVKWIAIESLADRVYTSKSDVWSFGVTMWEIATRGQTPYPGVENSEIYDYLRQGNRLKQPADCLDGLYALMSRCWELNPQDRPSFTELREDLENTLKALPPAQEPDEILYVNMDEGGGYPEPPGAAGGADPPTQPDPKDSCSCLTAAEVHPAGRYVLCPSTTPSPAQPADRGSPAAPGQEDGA

human MER (528-end) = molecular target: T2, human MER (528-end) (Homo sapiens, UniProt Q12866); test: HTRF kinase activity biochemical assay, MER; conditions: 10 μM ATP, 30 minutes pre-incubation; read-out: HTRF MERTK IC50
T2 construct: human MER (528-end); purchased Camnabio, Japan
T2 sequence (Q12866 528-999 limits assumed): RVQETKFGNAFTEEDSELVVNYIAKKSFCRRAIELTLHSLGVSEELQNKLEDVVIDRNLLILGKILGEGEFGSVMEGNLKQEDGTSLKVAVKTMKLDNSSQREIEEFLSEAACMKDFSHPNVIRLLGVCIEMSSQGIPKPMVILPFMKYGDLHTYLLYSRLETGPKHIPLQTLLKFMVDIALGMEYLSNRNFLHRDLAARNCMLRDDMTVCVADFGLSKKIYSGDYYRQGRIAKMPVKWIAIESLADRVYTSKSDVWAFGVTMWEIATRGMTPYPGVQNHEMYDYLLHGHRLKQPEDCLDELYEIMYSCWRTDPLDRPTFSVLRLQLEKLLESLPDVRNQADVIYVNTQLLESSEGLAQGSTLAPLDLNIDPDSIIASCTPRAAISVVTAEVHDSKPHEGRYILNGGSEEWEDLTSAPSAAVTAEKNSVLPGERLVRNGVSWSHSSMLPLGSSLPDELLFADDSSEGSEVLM

human TYRO3 (455-end) = molecular target: T3, human TYRO3 (455-end) (Homo sapiens, UniProt Q06418); test: HTRF kinase activity biochemical assay, TYRO3; conditions: 10 μM ATP, 30 minutes pre-incubation; read-out: HTRF TYRO IC50
T3 construct: TYRO3 (455-end); purchased SignalChem, Canada
T3 sequence (Q06418 455-890 limits assumed): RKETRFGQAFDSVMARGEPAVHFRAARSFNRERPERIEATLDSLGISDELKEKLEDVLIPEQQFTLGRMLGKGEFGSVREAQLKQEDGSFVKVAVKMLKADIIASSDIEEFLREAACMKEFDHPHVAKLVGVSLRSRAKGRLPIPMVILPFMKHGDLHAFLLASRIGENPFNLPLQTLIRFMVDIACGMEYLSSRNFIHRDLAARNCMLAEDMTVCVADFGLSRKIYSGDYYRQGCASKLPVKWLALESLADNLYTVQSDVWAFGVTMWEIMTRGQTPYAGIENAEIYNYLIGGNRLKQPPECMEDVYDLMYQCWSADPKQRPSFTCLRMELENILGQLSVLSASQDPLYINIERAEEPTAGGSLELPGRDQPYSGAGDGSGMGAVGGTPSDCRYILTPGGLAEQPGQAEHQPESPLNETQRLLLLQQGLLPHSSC

SMILES | IC50 (human AXL (473-end)) [µM] | IC50 (human MER (528-end)) [µM] | IC50 (human TYRO3 (455-end)) [µM]
CC1(C)CC(N2CCN(CCO)CC2)c2ccc(-c3ccc(CO[C@H]4CCC[C@@H]4NC(=O)c4cc(C(F)(F)F)cnc4N)cc3)cc21 (stereo partly drawn) [Example 130, 2-amino-N-{(1S,2S)-2-[(4-{1-[4-(2-hydroxyethyl)piperazin-1-yl]-3,3-dimethyl-2,3-dihydro-1H-inden-5-yl}phenyl)methoxy]cyclopentyl}-5-(trifluoromethyl)pyridine-3-carboxamide] | < 0.01 | < 0.01 | 0.1 to 1
Nc1ncc(-c2ccc(F)nc2)cc1C(=O)N[C@H]1CCC[C@@H]1OCc1ccc(-c2ccc3c(c2)CCC3N2CCN(CCO)CC2)cc1 (stereo partly drawn) [Example 19, 6-amino-6′-fluoro-N-{(1S,2S)-2-[(4-{1-[4-(2-hydroxyethyl)piperazin-1-yl]-2,3-dihydro-1H-inden-5-yl}phenyl)methoxy]cyclopentyl}[3,3′-bipyridine]-5-carboxamide] | < 0.01 | < 0.01 | 0.1 to 1
Cn1cc(-c2cnc(N)c(C(=O)N[C@H]3CCC[C@@H]3OCc3ccc(-c4ccc5c(N6CCN(CCO)CC6)coc5c4)cc3)c2)cn1 [Example 95, 2-amino-N-{(1S,2S)-2-[(4-{3-[4-(2-hydroxyethyl)piperazin-1-yl]-1-benzofuran-6-yl}phenyl)methoxy]cyclopentyl}-5-(1-methyl-1H-pyrazol-4-yl)pyridine-3-carboxamide] | 0.1 to 1 | 0.01 to 0.1 | > 1
CN1C(=O)Cc2cc(-c3ccc(CO[C@H]4CCC[C@@H]4NC(=O)c4cc(-c5cnn(C)c5)cnc4N)cc3)ccc21 [Example 3, 2-amino-N-[(1S,2S)-2-{[4-(1-methyl-2-oxo-2,3-dihydro-1H-indol-5-yl)phenyl]methoxy}cyclopentyl]-5-(1-methyl-1H-pyrazol-4-yl)pyridine-3-carboxamide] | 0.1 to 1 | 0.01 to 0.1 | > 1
Cc1nn(C)cc1-c1cnc(N)c(C(=O)N[C@H]2COC[C@@H]2OCc2ccc(-c3ccc4c(c3)C(C)(C)CN4C3CCN(CCO)CC3)cc2)c1 [Example 42, 2-amino-5-(1,3-dimethyl-1H-pyrazol-4-yl)-N-{(3S,4R)-4-[(4-{1-[1-(2-hydroxyethyl)piperidin-4-yl]-3,3-dimethyl-2,3-dihydro-1H-indol-5-yl}phenyl)methoxy]oxolan-3-yl}pyridine-3-carboxamide] | < 0.01 | < 0.01 | 0.01 to 0.1
CN(CCC(O)CO)C1CCc2cc(-c3ccc(CO[C@H]4CCC[C@@H]4NC(=O)c4cc(-c5cnn(C)c5)cnc4N)cc3)ccc21 (stereo partly drawn) [Example 125, 2-amino-N-{(1S,2S)-2-[(4-{1-[(3,4-dihydroxybutyl)(methyl)amino]-2,3-dihydro-1H-inden-5-yl}phenyl)methoxy]cyclopentyl}-5-(1-methyl-1H-pyrazol-4-yl)pyridine-3-carboxamide] | 0.01 to 0.1 | 0.01 to 0.1 | > 1
Cn1cc(-c2cnc(N)c(C(=O)N[C@H]3CCC[C@@H]3OCc3ccc(-c4ccc5c(C6CCN(CCO)CC6)cn(C)c5c4)cc3)c2)cn1 [Example 26, 2-amino-N-{(1S,2S)-2-[(4-{3-[1-(2-hydroxyethyl)piperidin-4-yl]-1-methyl-1H-indol-6-yl}phenyl)methoxy]cyclopentyl}-5-(1-methyl-1H-pyrazol-4-yl)pyridine-3-carboxamide] | 0.01 to 0.1 | < 0.01 | > 1
Cn1cc(-c2cnc(N)c(C(=O)N[C@H]3COC[C@@H]3OCc3ccc(-c4ccc5c(c4)C(C)(C)CN5C4CCN(CCO)CC4)cc3)c2)cn1 [Example 32, 2-amino-N-{(3S,4R)-4-[(4-{1-[1-(2-hydroxyethyl)piperidin-4-yl]-3,3-dimethyl-2,3-dihydro-1H-indol-5-yl}phenyl)methoxy]oxolan-3-yl}-5-(1-methyl-1H-pyrazol-4-yl)pyridine-3-carboxamide] | < 0.01 | < 0.01 | 0.01 to 0.1
CC1(C)CN(C2CCN(CCO)CC2)c2ccc(-c3ccc(CO[C@H]4COC[C@@H]4NC(=O)c4cc(-c5ccc(F)nc5)cnc4N)cc3)cc21 [Example 35, 6-amino-6′-fluoro-N-{(3S,4R)-4-[(4-{1-[1-(2-hydroxyethyl)piperidin-4-yl]-3,3-dimethyl-2,3-dihydro-1H-indol-5-yl}phenyl)methoxy]oxolan-3-yl}[3,3′-bipyridine]-5-carboxamide] | 0.01 to 0.1 | < 0.01 | 0.1 to 1
Cn1cc(-c2cnc(N)c(C(=O)N[C@H]3COC[C@@H]3OCc3ccc(-c4ccc5c(ccn5C)c4)cc3)c2)cn1 [Example 16, 2-amino-N-[(3S,4R)-4-{[4-(1-methyl-1H-indol-5-yl)phenyl]methoxy}oxolan-3-yl]-5-(1-methyl-1H-pyrazol-4-yl)pyridine-3-carboxamide] | 0.01 to 0.1 | 0.01 to 0.1 | > 1
Cn1cc(-c2cnc(N)c(C(=O)N[C@H]3CCC[C@@H]3OCc3ccc(-c4cccc5cc[nH]c45)cc3)c2)cn1 [Example 29, 2-amino-N-[(1S,2S)-2-{[4-(1H-indol-7-yl)phenyl]methoxy}cyclopentyl]-5-(1-methyl-1H-pyrazol-4-yl)pyridine-3-carboxamide] | 0.1 to 1 | 0.01 to 0.1 | > 1
COc1ccc(-c2cnc(N)c(C(=O)N[C@H]3CCC[C@@H]3OCc3ccc(-c4ccc5c(c4)CC[C@@H]5N4CCN(C)CC4)cc3)c2)cn1 [Example 152, 6-amino-6′-methoxy-N-[(1S,2S)-2-({4-[(1S)-1-(4-methylpiperazin-1-yl)-2,3-dihydro-1H-inden-5-yl]phenyl}methoxy)cyclopentyl][3,3′-bipyridine]-5-carboxamide] | < 0.01 | < 0.01 | 0.1 to 1
Cn1cc(-c2cnc(N)c(C(=O)N[C@H]3CCC[C@@H]3OCc3ccc(-c4ccc5c(c4)C4(CC4)CN5C4CCN(CCO)CC4)cc3)c2)cn1 [Example 28, 2-amino-N-{(1S,2S)-2-[(4-{1′-[1-(2-hydroxyethyl)piperidin-4-yl]-1′,2′-dihydrospiro[cyclopropane-1,3′-indol]-5′-yl}phenyl)methoxy]cyclopentyl}-5-(1-methyl-1H-pyrazol-4-yl)pyridine-3-carboxamide] | 0.01 to 0.1 | 0.01 to 0.1 | 0.01 to 0.1
Cn1cc(-c2cnc(N)c(C(=O)N[C@H]3CCC[C@@H]3OCc3ccc(-c4ccc5c(c4)C(C)(C)CCC5N4CCNCC4)cc3)c2)cn1 (stereo partly drawn) [Example 146, 2-amino-N-[(1S,2S)-2-({4-[8,8-dimethyl-5-(piperazin-1-yl)-5,6,7,8-tetrahydronaphthalen-2-yl]phenyl}methoxy)cyclopentyl]-5-(1-methyl-1H-pyrazol-4-yl)pyridine-3-carboxamide] | < 0.01 | < 0.01 | 0.01 to 0.1
Cn1cc(-c2cnc(N)c(C(=O)N[C@H]3CCC[C@@H]3OCc3ccc(-c4ccc5c(ccn5CC(=O)O)c4)cc3)c2)cn1 [Example 61, {5-[4-({[(1S,2S)-2-{[2-amino-5-(1-methyl-1H-pyrazol-4-yl)pyridine-3-carbonyl]amino}cyclopentyl]oxy}methyl)phenyl]-1H-indol-1-yl}acetic acid] | 0.01 to 0.1 | 0.01 to 0.1 | > 1
CN1CCN(C2CCC(C)(C)c3cc(-c4ccc(CO[C@H]5CCC[C@@H]5NC(=O)c5cc(-c6cnn(C)c6)cnc5N)cc4)ccc32)CC1 (stereo partly drawn) [Example 147, 2-amino-N-[(1S,2S)-2-({4-[8,8-dimethyl-5-(4-methylpiperazin-1-yl)-5,6,7,8-tetrahydronaphthalen-2-yl]phenyl}methoxy)cyclopentyl]-5-(1-methyl-1H-pyrazol-4-yl)pyridine-3-carboxamide] | < 0.01 | < 0.01 | 0.01 to 0.1
